# Measurements taken from patent US10961163B2, “Compositions and methods useful for enhancing the microbial conversion of nitrate into ammonium” (The Regents of the University of California, priority 2016, dated 2021).
# Peptide text beside a SMILES is read from it.
# System: microbial enrichment cultures
# Assay: Ammonium production normalized by growth (NH4+/OD ratio) of microbial enrichment cultivated on individual carbon sources
# Type: cell-based
# Details: not given
row,Molecule,Ammonium/OD ratio
1,N=C(N)NCCC[C@H](N)C(=O)O [L-Arginine],1.79
2,Cl.Cl.NCCCCN [Putrescine Dihydrochloride],1.20
3,NCCCC[C@H](N)C(=O)O [L-Lysine],1.02
4,L-tyrosine disodium salt,0.87
5,CC(=O)[O-].[K+] [Potassium acetate],0.98
6,O.O=C([O-])C[C@H](O)C(=O)[O-].[Na+].[Na+] [L-Malic acid disodium salt monohydrate],1.43
7,N[C@@H](Cc1c[nH]c2ccccc12)C(=O)O [L-Tryptophan],1.23
8,O.O=C([O-])C(=O)[O-].[K+].[K+] [Potassium oxalate monohydrate],1.13

# Same assay, conditions: average of 8 independent cultures amended with varying concentrations of the carbon source; ammonium by colorimetric (Bertholet) assay, growth by OD 600
row,Molecule,Ammonium/OD ratio
1,N[C@@H](CC(=O)O)C(=O)O [L-Aspartic Acid],1.24
2,OC[C@@H](O)[C@@H](O)[C@H](O)[C@@H](O)CO [D-Sorbitol],0.82
3,N[C@@H](CCC(=O)O)C(=O)[O-].O.[K+] [L-Glutamic acid monopotassium salt monohydrate],0.98
4,Gelatin,0.85
5,C[N+](C)(C)CC(O)CC(=O)[O-].Cl (stereo not drawn) [Carnitine Hydrochloride],1.45
6,Cl.N[C@@H](CS)C(=O)O.O [L-Cysteine hydrochloride monohydrate],1.00
7,O=C(O)[C@@H]1CCCN1 [L-Proline],0.94
8,Cl.N[C@H]1C(O)O[C@H](CO)[C@@H](O)[C@@H]1O (stereo partly drawn) [D-Glucosamine Hydrochloride],1.16
9,C[C@H](O)[C@H](O)[C@@H](O)[C@@H](O)C=O.O [L-Rhamnose monohydrate],1.09
10,NC(=O)NCCC[C@H](N)C(=O)O [L-Citrulline],1.46
11,OC[C@H]1O[C@@H](n2cnc3c(O)ncnc32)[C@H](O)[C@@H]1O [Inosine],1.44
12,OC[C@@H](O)[C@H](O)[C@@H](O)CO [Xylitol],1.13
13,OC[C@H]1O[C@@H](O[C@H]2[C@H](O)[C@@H](O)[C@H](O)O[C@@H]2CO)[C@H](O)[C@@H](O)[C@@H]1O [D-Cellobiose],1.14
14,O.O=C[C@H](O)[C@@H](O)[C@@H](O)[C@H](O)C(=O)O [D-Galacturonic Acid monohydrate],0.92
15,CC(C)C[C@H](N)C(=O)O [L-Leucine],1.07
16,O=C(O)CC(O)(CC(=O)O)C(=O)O [Citric Acid],1.65
17,O=C([O-])/C=C/C(=O)[O-].[Na+].[Na+] [Sodium Fumarate dibasic],0.81
18,Nc1ccn([C@@H]2O[C@H](CO)[C@@H](O)[C@H]2O)c(=O)n1 [Cytidine],1.64
19,O=C(CO)[C@@H](O)[C@H](O)[C@@H](O)C(=O)[O-].[K+] [5-Keto-D-Gluconic Acid potassium salt],1.12
20,CCCCCCCC(=O)[O-].[Na+] [Sodium octanoate],1.21
21,O=C[C@H](O)[C@@H](O)[C@@H](O)CO [L-Arabinose],1.70

row,Molecule,Ammonium/OD ratio
1,NC(=O)CC[C@H](N)C(=O)O [L-Glutamine],1.28
2,Nc1cc[nH]c(=O)n1 [Cytosine],1.37
3,O=C[C@H](O)[C@@H](O)[C@H](O)[C@H](O)COP(=O)([O-])[O-].[Na+].[Na+] [D-Glucose-6-Phosphate sodium salt],0.99
4,O.O=C([O-])CCC(=O)C(=O)[O-].[Na+].[Na+] [a-Ketoglutaric acid disodium salt hydrate],1.26
5,CCO [Ethanol],0.91
6,O=C([O-])[C@H](O)[C@@H](O)[C@H](O)[C@H](O)CO.[Na+] [D-Gluconic Acid sodium salt],1.19
7,OC[C@H]1O[C@@](CO)(O[C@H]2O[C@H](CO)[C@@H](O)[C@H](O)[C@H]2O)[C@@H](O)[C@@H]1O [Sucrose],1.07
8,C[C@H](O)C(=O)[O-].[Na+] [Sodium L-Lactate],1.35
9,O[C@H]1[C@H](O)[C@@H](O)[C@H](O)[C@@H](O)[C@H]1O [m-Inositol],1.25
10,Nc1ncnc2c1ncn2[C@@H]1O[C@H](CO)[C@@H](O)[C@H]1O [Adenosine],1.25
11,C[C@@H](N)C(=O)O [D-Alanine],1.08
12,O.O.O.O.O.O.O=C([O-])CCC(=O)[O-].[Na+].[Na+] [Sodium succinate dibasic hexahydrate],1.03
13,C[C@H](N)C(=O)O [L-Alanine],1.45
14,O.O.OC[C@H]1O[C@H](O[C@H]2O[C@H](CO)[C@@H](O)[C@H](O)[C@H]2O)[C@H](O)[C@@H](O)[C@@H]1O [D-Trehalose dihydrate],0.82
15,NCC(=O)N[C@@H](CCC(=O)O)C(=O)O [Gly-Glu] (H-Gly-Glu-OH),1.12
16,OC[C@H]1O[C@H](O[C@H]2[C@H](O)[C@@H](O)[C@H](O)O[C@@H]2CO)[C@H](O)[C@@H](O)[C@@H]1O [D-Maltose monohydrate],0.94
17,O.O.O.O.O.OC[C@H]1O[C@H](OC[C@H]2O[C@H](O[C@]3(CO)O[C@H](CO)[C@@H](O)[C@@H]3O)[C@H](O)[C@@H](O)[C@@H]2O)[C@H](O)[C@@H](O)[C@H]1O [D-Raffinose pentahydrate],1.03
18,NCC(=O)NC(CC(=O)O)C(=O)O (racemic) [Gly-DL-Asp],1.17
19,CC(C)[C@H](N)C(=O)O [L-Valine],0.94
20,O=C(CO)[C@@H](O)[C@H](O)[C@H](O)CO [D-Fructose],1.42
21,NC(=O)C[C@H](N)C(=O)O [L-Asparagine],1.16

row,Molecule,Ammonium/OD ratio
1,CSCC[C@H](N)C(=O)O [L-Methionine],1.67
2,NC(=O)[C@@H](O)[C@@H](O)[C@H](O)[C@@H](O)C=O [Glucuronamide],1.38
3,CCC(=O)[O-].[Na+] [Sodium propionate],0.94
4,CC(=O)C(=O)[O-].[Na+] [Sodium pyruvate],0.96
5,O=C(CO)[C@@H](O)[C@H](O)[C@@H](O)CO [L-Sorbose],1.90
6,O=c1ccn([C@@H]2O[C@H](CO)[C@@H](O)[C@H]2O)c(=O)[nH]1 [Uridine],0.96
7,N[C@H](CO)C(=O)O [D-Serine],1.81
8,O=C[O-].[Na+] [Sodium Formate],0.72
9,OC[C@H]1O[C@@H](O[C@H]2[C@H](O)[C@@H](O)[C@H](O)O[C@@H]2CO)[C@H](O)[C@@H](O)[C@H]1O [Beta-Lactose],0.99
10,O=C(CO)[C@@H](O)[C@@H](O)[C@H](O)CO [D-Tagatose],1.14
11,O=C[C@H](O)[C@@H](O)[C@H](O)[C@H](O)CO [D-Glucose],1.33
12,O=C[C@H](O)[C@@H](O)[C@H](O)[C@H](O)C(=O)O [D-Glucuronic Acid],1.02
13,O=C(O)c1ccc(O)cc1 [4-Hydroxybenzoic Acid],1.31
14,OCC(O)CO [Glycerol],1.19
15,C[C@H](O)[C@@H](O)[C@@H](O)[C@H](O)C=O [L-Fucose],1.06
16,C[C@@H](O)C(=O)[O-].[Na+] [Sodium D-Lactate],1.16
17,O=C1NC(=O)C(=O)N1 [Parabanic Acid],1.12
18,CC[C@H](C)[C@H](N)C(=O)O [L-Isoleucine],1.13
19,O=C[C@H](O)[C@@H](O)[C@@H](O)[C@H](O)CO [D-Galactose],0.93
20,O=C[C@@H](O)[C@@H](O)[C@H](O)[C@H](O)CO [D-Mannose],0.96
21,N[C@@H](Cc1ccccc1)C(=O)O [L-Phenylalanine],1.40

row,Molecule,Ammonium/OD ratio
1,"O=C(O)CC(O)C(=O)O (racemic) [D,L-Malic Acid]",1.41
2,O=C[C@@H](O)[C@H](O)[C@H](O)CO [D-Arabinose],1.21
3,Cc1cn([C@H]2C[C@H](O)[C@@H](CO)O2)c(=O)[nH]c1=O [Thymidine],1.06
4,CCCC(=O)[O-].[Na+] [Sodium butyrate],1.04
5,NCC(=O)O [Glycine],0.94
6,D-Salicin,1.35
7,"CC(O)C(=O)[O-].[Na+] (racemic) [Sodium D,L-Lactate]",0.91
8,O=C[C@H](O)[C@H](O)[C@H](O)CO [D-Ribose],1.36
9,N[C@@H](Cc1c[nH]cn1)C(=O)O [L-Histidine],1.10
10,OC[C@@H](O)[C@@H](O)[C@H](O)[C@H](O)CO [D-Mannitol],0.90
11,CC(=O)N[C@H]1C(O)O[C@H](CO)[C@@H](O)[C@@H]1O (stereo partly drawn) [N-Acetyl-D-Glucosamine],1.07
12,C=C(CC(=O)O)C(=O)O [Itaconic Acid],1.40
13,C[C@@H](O)[C@H](N)C(=O)O [L-Threonine],1.35
14,Cl.Nc1ncnc2nc[nH]c12.O [Adenine hydrochloride hydrate],0.93
15,N[C@@H](CO)C(=O)O [L-Serine],1.20
16,O=C[C@H](O)[C@@H](O)[C@H](O)CO [D-Xylose],1.06
17,O=C(O)CO [Glycolic Acid],1.01
18,OC[C@H]1O[C@@H]2O[C@H]3[C@H](O)[C@@H](O)[C@@H](O[C@H]4[C@H](O)[C@@H](O)[C@@H](O[C@H]5[C@H](O)[C@@H](O)[C@@H](O[C@H]6[C@H](O)[C@@H](O)[C@@H](O[C@H]7[C@H](O)[C@@H](O)[C@@H](O[C@H]1[C@H](O)[C@H]2O)O[C@@H]7CO)O[C@@H]6CO)O[C@@H]5CO)O[C@@H]4CO)O[C@@H]3CO [a-Cyclodextrin],1.07
19,Cc1c[nH]c(=O)[nH]c1=O [Thymine],1.13
